{"source": "patent US20140039044A1", "about": "“Hydroxylated Polymethoxyflavone Compositions” (WLLGEN, INC., priority 2006, published 2014)", "format_in_all_cases": "cell-based, mouse", "key": {"COX-2 mRNA": {"tested_on": "COX-2 mRNA", "assay": "LPS-induced COX-2 mRNA expression by real-time PCR", "settings": "RAW264.7 macrophages, 100 ng/mL LPS, 20 μM, relative to G3PDH, FIG. 6", "description": "Bacterial lipopolysaccharide (LPS)-induced COX-2 expression was monitored in RAW264.7 macrophages, as previously described. Briefly, COX-2 expression was determined in untreated cells and cells treated with 100 ng/mL LPS either in the absence or the presence of 20 μM 5-hydroxy-3,6,7,8,3′,4′-hexamethoxyflavone. COX-2 mRNA levels were determined by real-time PCR where the values obtained were relative to expression of glyceraldehyde-3-phosphate dehydrogenase (G3PDH)."}, "iNOS": {"tested_on": "iNOS", "assay": "Western blot of LPS-induced iNOS protein expression", "settings": "LPS-activated macrophages, 30 μM, 24 h, FIG. 4", "description": "(§1) Proteins were isolated from cells after treatment with test compounds for 24 h. Total protein was extracted by adding 200 μL of gold lysis buffer (50 mM Tris-HCl, pH 7.4; 1 mM NaF; 150 mM NaCl; 1 mM EGTA; 1 mM phenylmethanesulfonyl fluoride; 1% NP-40; and 10 μg/mL leupeptin) to the cell pellets, which were kept on ice for 30 minutes, followed by centrifugation at 10,000×g for 30 min at 4° C. The protein concentrations of the cytosolic fraction (supernatant) were measured by BIO-RAD Protein Assay (Bio-Rad Laboratories, Munich, Germany). Samples containing 50 μg of protein were electrophoretically separated by SDS-PAGE and transferred to PVDF membrane (Millipore Corp., Bedford, Mass.) using standard procedures. See Burnette (1981) Anal. Biochem. 112:195-203. […]\n(§2) Western blot analysis of inhibition of LPS-induced iNOS and COX-2 protein expression by PMFs was analyzed, following procedures described above. […] Equal amounts of total proteins (50 μg) were subjected to 10% SDS-PAGE, and expression of iNOS, COX-2 and β-actin protein was detected by Western blot using specific antibodies."}, "COX-2": {"tested_on": "COX-2", "assay": "Western blot of LPS-induced COX-2 protein expression", "settings": "LPS-activated macrophages, 30 μM, 24 h, FIG. 4", "description": "as §1, §2"}, "[1]": {"tested_on": "LPS-induced NFκB promoter activities in RAW264.7 macrophages", "assay": "NFκB-dependent luciferase reporter assay", "settings": "FIG. 5", "description": "RAW264.7 cells were seeded in […]. When the cells were confluent, the medium was replaced with serum-free Opti-MEM (Gibco-BRL). Then the cells were transfected with the p-NFκB-Luc plasmid reporter gene using LIPOFECTAMINE™ reagent (Invitrogen). After 6 h incubation, the medium was replaced with complete medium. After 24 h, the cells were trypsinized and equal numbers of cells were plated in 24 well tissue culture plates for 6 h. Cells were then treated with LPS (100 ng/ml) alone or with PMFs (10 or 30 μM) for 12 h. Each well was wash twice with cold PBS and harvested in 100 μl serum-free DMEM, and the luciferase activity was assayed by LUCILITE luciferase reporter gene assay kit (PerkinElamer). Luminescence was measured in a Luminescence counter (Molecular Devices, LMaxII) in single photon counting mode for 2 sec/well, following 5 min adaptation in the dark.\nTo confirm whether selected PMFs inhibited NFκB binding activity in LPS-induced macrophages, assessment of luciferase expression in cells transiently transfected with NFκB-dependent luciferase reporter plasmid was assessed according to the procedures described above in Section 8.4."}}}
{"smiles": "COc1ccc(-c2oc3c(OC)c(OC)c(OC)c(O)c3c(=O)c2OC)cc1OC", "note": "[Compound C, 5-hydroxy-3,6,7,8,3′,4′-hexamethoxyflavone]", "values": [{"measurement": "Inhibition of LPS-induced COX-2 mRNA expression, in words", "setting": "COX-2 mRNA", "value": "inhibits LPS-induced COX-2 mRNA expression"}]}
{"smiles": "COc1ccc(-c2cc(=O)c3c(O)c(OC)c(OC)c(OC)c3o2)cc1O", "note": "[Compound K, 5,3′-dihydroxy-6,7,8,4′-tetramethoxyflavone]", "values": [{"measurement": "Inhibition of iNOS expression (Western blot), in words", "setting": "iNOS", "value": "most potent inhibitor of iNOS expression"}]}
{"smiles": "COc1c(OC)c(OC)c2c(=O)cc(-c3ccc(O)c(O)c3)oc2c1OC", "note": "[H, 3′,4′-dihydroxy-5,6,7,8-tetramethoxyflavone]", "values": [{"measurement": "Inhibition of COX-2 expression (Western blot), in words", "setting": "COX-2", "value": "most potent inhibitor of COX-2 expression"}, {"measurement": "Rank of inhibitory potency on LPS-induced NFκB transcriptional activity", "setting": "[1]; RAW264.7, 30 μM", "value": "greatest inhibitory potency of PMFs tested"}, {"measurement": "Inhibition of LPS-induced NFκB transcriptional activity, in words", "setting": "[1]; RAW264.7, LPS 100 ng/ml, PMF 10 or 30 μM, 12 h", "value": "inhibited LPS-induced NFκB transcriptional activity in a concentration-dependent manner"}]}
